{"source": "patent US20080019926A1", "about": "“Lung Surfactant Supplements” (priority 2004, published 2008)", "assay_type_in_all_cases": "physicochemical", "key": {"[1]": {"experiment": "Compression isotherm (surface pressure versus molecular area) of a Langmuir DPPC monolayer as pulmonary surfactant model", "protocol": "The monolayer of native pulmonary surfactant was modeled by a Langmuir monolayer of DPPC. In this model, the DPPC molecules were spread using a spreading solvent onto the surface of water contained in a trough coated with Teflon®. After evaporation of the solvent, the DPPC molecules were progressively compressed using two mobile Teflon® barriers. The variation of the surface pressure was measured as a function of the compression by a pressure sensor such as a Wilhelmy blade.\nSmall quantities of perfluorooctyl bromide (PFOB) in liquid form (1-200 μl), contacted with the DPPC monolayer, result in the disappearance of the liquid expanded/liquid condensed phase transition of the phospholipid. […] FIG. 1 compares the compression isotherms of a DPPC monolayer alone and in contact with the fluorocarbon. In absence of fluorocarbon, one notes the presence of a plateau reflecting the coexistence of the expanded liquid state (fluid phase) and the condensed liquid state (crystalline islets). […] The DPPC monolayer is totally fluid.\nPlacing the Langmuir trough in a close space saturated with PFOB vapour, it is possible to study the interactions between the DPPC monolayer and the gaseous PFOB."}, "[2]": {"experiment": "Grazing incidence X-ray diffraction of the DPPC monolayer", "settings": "gaseous fluorocarbon, DPPC monolayer compressed at 40 mN·m^−1", "source_text": "The two diffraction peaks seen in the absence of fluorocarbon are characteristics of the molecular organisation of DPPC in crystalline islets (▪)."}, "[3]": {"experiment": "Fluorescence microscopy of the DPPC monolayer contacted with gaseous fluorocarbon", "source_text": "Fluorescence microscopy makes it possible to visualize the dissolution of crystalline islets of DPPC molecules when the monolayer is contacted with gaseous PFOB (FIG. 3A)."}, "[4]": {"settings": "gaseous fluorocarbon, saturated atmosphere"}}, "note": "“Also recorded” adds a separate entry of the source.", "data": [{"smiles": "FC(F)(F)C(F)(F)C(F)(F)C(F)(F)C=CC(F)(F)C(F)(F)C(F)(F)C(F)(F)F", "note": "[Example F-44E, bis(perfluorobutyl)ethene]", "values": [{"measurement": "plateau reflecting the coexistence of the expanded liquid state (fluid phase) and the condensed liquid state (crystalline islets) in the DPPC compression isotherm", "setting": "[1]; [4]", "value": "no longer seen; also recorded: disappears"}, {"measurement": "diffraction peaks characteristic of DPPC crystalline islets / crystalline islets", "setting": "[2]", "value": "these peaks have disappeared; also recorded: disappearance of the crystalline islets"}]}, {"smiles": "FC(F)(F)C(F)(F)C(F)(F)C(F)(F)C(F)(F)C(F)(F)C(F)(F)C(F)(F)Br", "note": "[PFOB, 1-bromo-heptadecafluorooctane]", "values": [{"measurement": "state of the DPPC monolayer", "setting": "[1]; gaseous fluorocarbon", "value": "totally fluid"}, {"measurement": "plateau reflecting the coexistence of the expanded liquid state (fluid phase) and the condensed liquid state (crystalline islets) in the DPPC compression isotherm", "setting": "[1]; [4]", "value": "no longer seen; also recorded: disappears"}, {"measurement": "state of the DPPC monolayer", "setting": "[1]; liquid fluorocarbon", "value": "totally fluid"}, {"measurement": "plateau reflecting the coexistence of the expanded liquid state (fluid phase) and the condensed liquid state (crystalline islets) in the DPPC compression isotherm", "setting": "[1]; liquid fluorocarbon (1-200 μl) contacted with the DPPC monolayer", "value": "no longer seen; also recorded: disappeared totally"}, {"measurement": "crystalline islets of DPPC seen by fluorescence microscopy, course with time", "setting": "[3]; monolayer compressed at 10 mN·m^−1, 3, 5 and 7 min", "value": "progressively disappear"}, {"measurement": "crystalline islets of DPPC seen by fluorescence microscopy", "setting": "[3]; monolayer compressed at 10 mN·m^−1, after 3 minutes", "value": "becomes small"}, {"measurement": "crystalline islets of DPPC seen by fluorescence microscopy", "setting": "[3]; monolayer compressed at 10 mN·m^−1, after 5 minutes", "value": "almost completely re-spread"}, {"measurement": "crystalline islets of DPPC seen by fluorescence microscopy", "setting": "[3]; monolayer compressed at 10 mN·m^−1, after 7 minutes", "value": "completely disappeared"}]}]}
